The values that follow come from patent US12029734B2, “Compositions and methods for treatment of symptoms in Parkinson's disease patients” (Tyler Medical Research, LLC, priority 2011, dated 2024).

Where two headings read alike, the source gives them in different places.

For series [1] the following is noted: cited from earlier work.
For series [2], the system named is patients with idiopathic PD and LIDS. The source says:
A total of 65 patients with idiopathic PD and LIDS were enrolled in a phase II study. Major entry criteria were as follows: 1) Hoehn and Yahr Stage II-IV while in “on” state, 2) had moderately to severely disabling LIDS>25% of waking day as determined by a rating of >2 on each of Questions 32 and 33 of the Unified Parkinson's Disease Rating Scale (UPDRS), 3) be on stable doses of levodopa and other medicines for PD for >30 days, 4) have a negative screening urine test for cotinine, and 5) not be a smoker or previous smoker or regular exposure to second-hand smoke. The study consisted of 3 phases: a treatment period of 10 weeks, a 9-day drug taper period, and a 5-day follow-up period. Subjects were randomly assigned to receive either nicotine or placebo (pbo). Dosing began at 1 mg q6 hr and was escalated at 2-week intervals to 6 mg q6 hr (24 mg/day). All subjects were allowed to take ondansetron as rescue medication for the treatment of nausea and/or vomiting for the first 3 days of each dose escalation. Subjects were maintained on 24 mg/day for 4 weeks.
Efficacy was assessed using the UPDRS (total of Parts II+III+IV), sum of Q32+Q33, Unified Dyskiensia Rating Scale (UDysRS) total scores and subscores, Lang-Fahn Dyskinesia Activities of Daily Living Scale (LF-ADL), physician and patient ratings of improvement from baseline in dyskinesias on 7-point CGI-C and PGI-C scales, and responder analyses (subjects with >25% improvement from baseline) on UDysRS total score and LF-ADL, and % subjects with any improvement on PGI-C and CGI-C.
The safety population for all safety analyses consisted of all subjects who received at least 1 dose of nicotine or placebo.

For series [3] the test system is unchanged. This is another data set of the same source.
Method: (§1) Safety was assessed by incidences of adverse experiences (AE), clinical laboratory tests, serum cotinine, ECG and vital signs. Impulsive symptoms were assessed using the Jay Modified Minnesota Impulsive Disorders Interview (JayMidi). Withdrawal symptoms were evaluated using the Minnesota Nicotine Withdrawal Scale (MNWS-R).
Series [4] has the same test system. Briefly: Phase II clinical trial of nicotine: safety assessments (AEs, laboratory tests, serum cotinine, ECG, JayMidi, MNWS-R). Particulars: human, in vivo.
Method: as §1

Consider `N[C@@H](Cc1ccc(O)c(O)c1)C(=O)O` [Levodopa, L-3,4-dihydroxyphenylalanine (S)-2-amino-3-(3,4-dihydroxyphenyl)propanoic acid], for which the solubility in water entry in series [1] is on record as “slightly soluble in water”.

In the case of `CN1CCC[C@H]1c1cccnc1` [nicotine, 3-[(2S)-1-methylpyrrolidin-2-yl]pyridine], in series [2] (10 weeks of treatment), the UPDRS total scores result is recorded as “did not worsen, but improved”. Further, the “number of UDysRS subscores improved (mean changes from baseline compared to pbo)” value in series [2] (Week 10 (FIG. 3)) was 9 of 10. The “UPDRS Part III score, maximum mean improvement” value in series [2] (Week 10, change from baseline (FIG. 1)) is 2.0 points. The “LF-ADL responders (>25% improvement from baseline)” value in series [2] (Week 10, p=0.04 versus pbo) is 56%. Further, the “CGI-C pattern compared to pbo” value in series [2] (after 10 weeks (FIG. 4)) is “similar, but not statistically significant pattern”. The “PGI-C: patients rating themselves as having any degree of improvement” value in series [2] (after 10 weeks, p=0.004 versus pbo (FIG. 4)) worked out at 78%. Also, the “efficacy on LIDS on the majority of patient- and physician-rated outcome measures” value in series [2] (compared to pbo) is “trend or statistically significant improvement”. In addition, the “UPDRS mean change from baseline to Week 10” value in series [2] (compared to placebo, every visit during drug treatment) was “numerical improvement”. Besides, the UDysRS total score entry in series [2] (every study visit during the drug-treatment period (FIG. 2)) was “Mean improvement from baseline and greater separation from pbo”. The “PGI-C: distribution of subjects in each category compared to pbo” value in series [2] (p=0.02) is “significant”. The “ambulation (UDysRS subscore)” value in series [2] (versus pbo, p=0.01) is recorded as “Statistically significant improvement”. Also, the “overall safety and tolerability” value in series [3] (PD patients with LIDS, oral, escalated from 1 mg q6 hr to 6 mg q6 hr (24 mg/day), 10 weeks) is “generally safe and well-tolerated”. Also, in series [3] (Week 10 (end of drug treatment)), the “withdrawal symptoms, MNWS-R score (maximal score 60)” value was found to be 7.5. For the same molecule, the “relation of SAEs to study medication” value in series [3] (all SAEs) is “unrelated to study medication”. Further, in series [3] (end of the follow-up period), the “withdrawal symptoms, MNWS-R score (maximal score 60)” value amounted to 5.4. In addition, in series [3] (nicotine group), the “occurrences of impulsivity disorders (positive score on any JayMidi module)” value turned out to be 1 subject, the “overall incidence of serious AEs (SAE)” value was 4 subjects, the “percentage of subjects reporting treatment-related AEs” value came to 54% and the “subjects who used rescue medication (ondansetron)” value is recorded as “Twenty-nine”. Moreover, in series [3] (nicotine group), the “treatment-emergent AE: constipation, subjects” value is reported as 11%; the “treatment-emergent AE: dizziness, subjects” value was determined as 11%; the “treatment-emergent AE: fatigue, subjects” value came out at 9%; the “treatment-emergent AE: nausea, subjects” value is reported as 31%. Further, in series [3] (nicotine group), the “treatment-emergent AE: nightmares, subjects” value was 6%; the “treatment-emergent AE: non-specific pain, subjects” value is 9%; the “treatment-emergent AE: vomiting, subjects” value came to 6%. The “subjects withdrawn due to treatment-related AEs” value (from here on “subjects withdrawn due”) in series [3] (nicotine group, n=35 randomized) is given as 6 subjects. In series [3] (on 4 mg/day), the “subjects withdrawn due” value is listed as 1 subject. Besides, the “subjects withdrawn due” value in series [3] (on 8 mg/day) worked out at 1 subject. Moreover, in series [3] (on 16 mg/day), the “subjects withdrawn due” value was 2 subjects. The “subjects withdrawn due” value in series [3] (on 24 mg/day) stood at 2 subjects. In addition, the serum cotinine levels entry in series [3] (patients treated with nicotine, dose escalation) is on record as “increased with increasing dose”. In addition, the “intensity of the majority of adverse events” value in series [3] (transient in duration) is “mild or moderate in intensity”. Besides, in series [4], the “changes in ECG parameters” value was “no clinically relevant changes” and the “withdrawal symptoms as assessed by MNWS-R, clinical relevance” value was “not a clinically relevant issue”.
